Test results published in ChEMBL document CHEMBL1139428, “Cocrystal structures of primed side-extending alpha-ketoamide inhibitors reveal novel calpain-inhibitor aromatic interactions” (J Med Chem, 2008).
The source made the active and inactive calls. The calls are words filed in the database; no cut-off is given here.

Assays:
[1] = biological target: T1, Calpain-1 catalytic subunit (Homo sapiens) (UniProt P07384); assay: Inhibition of calpain 1 protease core assessed as attenuation of substrate cleavage at 50 uM by FRET
T1 sequence (whole entry): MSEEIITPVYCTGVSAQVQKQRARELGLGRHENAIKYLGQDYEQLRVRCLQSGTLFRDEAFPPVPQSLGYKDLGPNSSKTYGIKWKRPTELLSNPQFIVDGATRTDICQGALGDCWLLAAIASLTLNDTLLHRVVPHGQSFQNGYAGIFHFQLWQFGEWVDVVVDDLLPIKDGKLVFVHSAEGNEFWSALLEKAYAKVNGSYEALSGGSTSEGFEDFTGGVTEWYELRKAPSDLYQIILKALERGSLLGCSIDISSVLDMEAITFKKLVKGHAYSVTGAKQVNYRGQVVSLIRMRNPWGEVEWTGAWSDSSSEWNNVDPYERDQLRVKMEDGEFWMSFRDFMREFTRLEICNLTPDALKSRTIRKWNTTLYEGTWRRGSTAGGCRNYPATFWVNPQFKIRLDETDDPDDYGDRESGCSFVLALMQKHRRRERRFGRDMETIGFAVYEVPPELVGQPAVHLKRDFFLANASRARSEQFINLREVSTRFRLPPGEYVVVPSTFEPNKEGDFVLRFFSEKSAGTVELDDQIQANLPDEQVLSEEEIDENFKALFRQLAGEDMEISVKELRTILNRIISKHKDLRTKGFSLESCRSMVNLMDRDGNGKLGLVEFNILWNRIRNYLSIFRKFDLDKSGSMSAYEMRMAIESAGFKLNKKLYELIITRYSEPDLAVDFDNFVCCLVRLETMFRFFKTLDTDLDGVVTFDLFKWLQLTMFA

[2] = biological target: T2, Calpain-2 catalytic subunit (Homo sapiens) (UniProt P17655); assay: Inhibition of m-calpain assessed as attenuation of substrate cleavage at 1 uM by FRET
T2 sequence (whole entry): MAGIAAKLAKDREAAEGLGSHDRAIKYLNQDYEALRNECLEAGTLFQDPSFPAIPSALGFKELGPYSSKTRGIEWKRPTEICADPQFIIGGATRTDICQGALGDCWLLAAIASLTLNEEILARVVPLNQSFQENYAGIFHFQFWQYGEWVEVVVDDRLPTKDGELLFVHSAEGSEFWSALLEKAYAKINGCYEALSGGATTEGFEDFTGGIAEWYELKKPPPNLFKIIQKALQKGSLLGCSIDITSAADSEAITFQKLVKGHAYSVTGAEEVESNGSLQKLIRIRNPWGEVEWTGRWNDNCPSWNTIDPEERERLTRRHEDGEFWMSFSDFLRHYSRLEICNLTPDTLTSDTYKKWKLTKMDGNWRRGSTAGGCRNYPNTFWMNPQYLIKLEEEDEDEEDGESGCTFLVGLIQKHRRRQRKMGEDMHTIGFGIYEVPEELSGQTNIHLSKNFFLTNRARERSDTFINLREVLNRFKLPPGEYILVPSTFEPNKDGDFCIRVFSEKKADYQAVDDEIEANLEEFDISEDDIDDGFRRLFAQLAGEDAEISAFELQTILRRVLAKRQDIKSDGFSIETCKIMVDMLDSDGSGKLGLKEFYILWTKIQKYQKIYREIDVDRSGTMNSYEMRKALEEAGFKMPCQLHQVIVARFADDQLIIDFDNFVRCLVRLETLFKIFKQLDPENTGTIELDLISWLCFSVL

Activity [1]	Activity [2]	SMILES
Active	Active	CC[C@H](NC(=O)[C@H](CC(C)C)NC(=O)OCc1ccccc1)C(=O)C(=O)NCCCn1cnc2c(N)ncnc21
Active	Active	CC[C@H](NC(=O)[C@H](CC(C)C)NC(=O)OCc1ccccc1)C(=O)C(=O)NCCCN1CCN(C)CC1
